Data from PubChem BioAssay (NCI).
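Grown in 96-well plates, cells were treated for 48 hours with each compound at five concentrations. Insufficient inhibition: endpoint recorded as highest concentration tested. Here, GI50 denotes the concentration required for 50% inhibition of growth. TGI: total growth inhibition.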

Legend:
Experiment in all cases: NCI-60 cell line screen, 48 h
786-0 renal = test system: 786-0 renal
ACHN renal = test system: ACHN renal
NCI-H23 lung = test system: NCI-H23 lung
PC-3 prostate = test system: PC-3 prostate
RPMI-8226 leukemia = test system: RPMI-8226 leukemia
SK-MEL-2 melanoma = test system: SK-MEL-2 melanoma
T-47D breast = test system: T-47D breast
UACC-257 melanoma = test system: UACC-257 melanoma
NCI/ADR-RES ovarian = test system: NCI/ADR-RES ovarian

Row | Structure (SMILES) | TGI (786-0 renal) [µM] | TGI (ACHN renal) [µM] | TGI (NCI-H23 lung) [µM] | TGI (PC-3 prostate) [µM] | TGI (RPMI-8226 leukemia) [µM] | TGI (SK-MEL-2 melanoma) [µM] | TGI (T-47D breast) [µM] | TGI (UACC-257 melanoma) [µM] | TGI (NCI/ADR-RES ovarian) [µM] | GI50 (PC-3 prostate) [µM] | GI50 (RPMI-8226 leukemia) [µM] | GI50 (SK-MEL-2 melanoma) [µM] | GI50 (ACHN renal) [µM] | GI50 (NCI-H23 lung) [µM] | GI50 (NCI/ADR-RES ovarian) [µM] | GI50 (T-47D breast) [µM] | GI50 (UACC-257 melanoma) [µM]
1 | COC(=O)C1C(C(=O)OC)C2(OC(c3ccc(Cl)cc3)=CC2=O)C12OC(c1ccc(Cl)cc1)=CC2=O (stereo unspecified) | 41 | 39.4 | 52.2 | 55.8 | 37.2 | 55.3 | 63.3 | 48.8 |  |  |  |  |  |  |  |  | 
2 | CCCCSc1nsc(N(C(=O)c2ccccc2)C(=O)c2ccccc2)n1 | > 100 | > 100 | > 100 | > 100 | 47.2 | 71.1 | > 100 | 74.9 | > 100 |  |  |  |  |  |  |  | 
3 | CC1C(NNc2ccccc2)Oc2cc3c(cc2C1c1ccccc1O)OCO3 (stereo unspecified) | 44.3 | 13.1 | 26.5 | 21.5 | 24.7 | 25.6 | 16.2 | 20.5 |  |  |  |  |  |  |  |  | 
4 | N#C/C(C(=O)Nc1ccc(Cl)cc1)=C(/N)N1CCCC1 | > 100 | > 100 | > 100 | > 100 | > 100 | > 100 | > 100 | > 100 | > 100 |  |  |  |  |  |  |  | 
5 | CCc1c(CNc2ccc(C(=O)NC(CC(=O)O)C(=O)O)cc2)ccc2nc(N)nc(N)c12 (stereo unspecified) | > 1000 | > 1000 | > 1000 | > 1000 | > 1000 | > 1000 |  |  | > 1000 | < 0.01 | 1.28 | > 1000 |  |  |  |  | 
6 | CSc1nc(NC(C)C)c2c(n1)Sc1nc3ccccc3n1N=C2 | 16.7 | 20.9 | 38.7 | > 100 | > 100 | 47.3 |  | > 100 | 46.7 |  |  |  |  |  |  |  | 
7 | C1=C2C3=[N+](CCCCC3)CC2Cc2ccsc21 (stereo unspecified) | > 100 | > 100 | > 100 | > 100 |  | > 100 | > 100 | 85.3 | > 100 |  |  |  |  |  |  |  | 
8 | CCCCC1=C(C(=O)N2CCOCC2)C2(OCCO2)C1=O | 40.6 | 34.8 | 51.1 | 98.3 |  | 71.7 | > 100 | 89.9 | 57.2 |  |  |  |  |  |  |  | 
9 | C=C1C(OC2O[C@@H]3O[C@@]4(C)CC[C@H]5[C@H](C)CC[C@@H](C2=C)[C@@]35O4)O[C@@H]2O[C@@]3(C)CC[C@H]4[C@H](C)CC[C@@H]1[C@@]24O3 (stereo partly specified) | > 50 | > 50 | > 50 | > 50 | > 50 | > 50 | > 50 | > 50 |  |  |  |  |  |  |  |  | 
10 | Cc1cc(S(=O)(=O)Nc2n[nH]c(-c3ccccn3)n2)c(S)cc1Cl | 72.7 | 54.1 |  | > 100 | > 100 | 63.9 | 56.2 | > 100 | 35.3 |  |  |  |  |  |  |  | 
11 | CC1CCC2(NC1)OC1CC3C4CC=C5CC(OC6OC(CO)C(OC7OC(C)C(O)C(O)C7O)C(O)C6OC6OC(C)C(O)C(O)C6O)CCC5(C)C4CCC3(C)C1C2C (stereo unspecified) | 3.72 | 14.6 | 27.1 | 4.28 | 32.5 | 9.07 | 29 | 6.67 |  |  |  |  |  |  |  |  | 
12 | N#C/C(=C/n1c(=S)[nH]c2ccc([N+](=O)[O-])cc21)C(N)=O | > 100 | > 100 | > 100 | > 100 | > 100 | > 100 |  | > 100 | > 100 |  |  |  |  |  |  |  | 
13 | S=C(N/N=C\C(=N/NC(=S)N1CCCCC1)c1ccccc1)N1CCCCC1 | 3.74 | 3.11 |  | 4.06 | > 100 |  | 6.72 | 5.01 | 7.87 |  |  |  |  |  |  |  | 
14 | CN1C(=O)N(C)C(O)C(Cl)(Br)C1=O (stereo unspecified) | > 100 | > 100 | > 100 | > 100 | > 100 | > 100 |  | > 100 | > 100 |  |  |  |  |  |  |  | 
15 | c1cncc(CC2(c3cc4ccccc4[nH]3)OCCO2)c1 | > 100 | > 100 | > 100 | > 100 |  | > 100 | > 100 | > 100 | > 100 |  |  |  |  |  |  |  | 
16 | Cc1cc(C)c2c(=O)cc(-c3cccc(F)c3)[nH]c2n1 | > 64.2 | > 100 | 11.2 | > 49.1 | > 55.1 |  | > 100 | > 100 |  |  |  |  |  |  |  |  | 
17 | O=C1C=CC(=O)N1n1c(-c2ccccc2)n[nH]c1=O | > 100 |  | > 100 | > 100 |  | > 100 | > 100 | > 100 | > 100 |  |  |  |  |  |  |  | 
18 | Cc1ccc(C(=O)N/N=C(\N=Nc2ccccc2)c2ccc(N(C)C)cc2)cc1 | > 100 |  | > 100 | > 100 | > 100 | > 100 |  | > 100 | > 100 |  |  |  |  |  |  |  | 
19 | CC1=NN(c2nc(N)nc(-c3sccc3N)n2)C(C)(C)C1 | > 100 | > 100 | > 100 |  | 70.9 |  |  | > 100 | > 100 |  |  |  |  |  |  |  | 
20 | COc1ccc(C2C3=C(COC3=O)Oc3cc4c(cc32)OCO4)c(OC)c1 (stereo unspecified) | > 100 | > 100 | > 100 | > 100 | > 100 |  |  | > 100 | > 100 |  |  |  |  |  |  |  | 
21 | CC(C)(C)OC(=O)NC(Cc1ccccc1)NC(=O)NC(=O)OCc1ccccc1 (stereo unspecified) | > 100 | > 100 | > 100 | > 100 | > 100 | > 100 |  | > 100 | > 100 |  |  |  |  |  |  |  | 
22 | O=C1N=C2SC(=S)NC(=S)N2NC12c1ccccc1-c1ccccc12 | > 10 |  | > 10 |  | > 10 |  | > 10 | > 10 | > 10 |  |  |  |  |  |  |  | 
23 | CC(C)C(CC(=O)OCC(CO)OC(=O)CC(C(C)C)C(C)C)C(C)C (stereo unspecified) | 27.9 | 24.3 | 30.4 | 30.3 |  | 35.2 | 31.7 | 31.2 | 27.3 |  |  |  |  |  |  |  | 
24 | COc1cc(-c2n/c(=C\c3c(O)[nH]c4ccc(Cl)cc34)cc3c2=Nc2ccccc2-3)ccc1F |  | 3.76 | 3.42 | 5.88 | > 100 |  | 3.5 | 10.9 | 5.04 | 2 | 6.75 |  | 1.85 | 1.73 | 2.03 | 1.5 | 3.43
25 | COc1ccc(Nc2nc(N)c(C(=O)c3c[nH]c4ccccc34)s2)cc1 | 13.6 | > 100 | > 95 | > 100 |  | > 72.5 | > 88.3 | > 91.4 | 19.4 |  |  |  |  |  |  |  | 
